# From patent publication US8754093B2, “Co-crystal of etravirine and nicotinamide” (Janssen R&D Ireland, priority 2009, dated 2014)
# Assays:
# [1] = Dissolution experiments with TMC125/nicotinamide co-crystal (10 mM HCl with 1% TPGS, HPLC); assay type: physicochemical; conditions: Simulated Gastric Fluid with 1% TPGS, 37° C., 500 rpm
# Protocol: This dissolution experiment was focused on looking at the difference between the cocrystal and TMC125 free base both neat and mixed with HPMC E5 Cps.
# A: 100 mg co-crystal: 100 mg HPMC E5 Cps (powder blend)
# B: 100 mg co-crystal (powder)
# C: 78 mg free base: 100 mg HPMC E5 Cps (powder blend)
# D: 78 mg free base (powder)
# Powders were dispensed to 20 mL vials and in 20 mL of 10 mM HCl with 1% TPGS (d-alpha-tocopheryl polyethylene glycol 1000 succinate) was added to each vial. Each […], filtered through a 0.45 μm nylon filter via centrifugation and the solute was diluted in half and analyzed by HPLC for the concentration of TMC125.
# [2] = cited from earlier work
# [3] = traditional formulations; cited from earlier work
smiles,measurement,setting,value
"Cc1cc(C#N)cc(C)c1Oc1nc(Nc2ccc(C#N)cc2)nc(N)c1Br [Neat TMC125 FB, 4-[[6-amino-5-bromo-2-[(4-cyanophenyl)amino]-4-pyrimidinyl]oxy]-3,5-dimethylbenzonitrile]",Concentration of TMC125,[1]; time 5 min,22.36 µg/mL
same,Concentration of TMC125,[1]; time 10 min,52.04 µg/mL
same,Concentration of TMC125,[1]; time 20 min,57.03 µg/mL
same,Concentration of TMC125,[1]; time 30 min,58.96 µg/mL
same,Concentration of TMC125,[1]; time 45 min,59.83 µg/mL
same,Concentration of TMC125,[1]; time 60 min,60.10 µg/mL
same,solubility in aqueous media,[2],very insoluble
same,bioavailability,[3],very low
